Assay results taken from US20240376109A1, “PYRAZOLO[1,5-A]PYRIMIDINE COMPOUND FOR THE TREATMENT OF DERMAL DISORDERS” (OTSUKA PHARMACEUTICAL CO., LTD., priority 2021, published 2024).

Target: T1, PAR2 (Homo sapiens, UniProt P55085)
T1 construct: HEK293 cell lines derived from human embryonic kidney cultured in a MEM culture medium; endogenous in cells; host or cells: HEK293
T1 sequence (P55085 26-397): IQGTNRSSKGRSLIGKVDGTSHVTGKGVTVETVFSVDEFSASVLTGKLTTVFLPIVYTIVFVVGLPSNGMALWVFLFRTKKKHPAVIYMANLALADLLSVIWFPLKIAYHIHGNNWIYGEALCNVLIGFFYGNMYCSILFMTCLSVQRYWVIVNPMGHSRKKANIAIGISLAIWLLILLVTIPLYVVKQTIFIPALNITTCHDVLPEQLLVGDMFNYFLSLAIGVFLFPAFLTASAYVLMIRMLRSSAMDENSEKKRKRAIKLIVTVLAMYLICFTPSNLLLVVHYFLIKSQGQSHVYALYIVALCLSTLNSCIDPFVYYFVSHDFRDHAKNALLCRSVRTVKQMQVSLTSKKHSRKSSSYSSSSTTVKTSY
Assay: Intracellular calcium concentration measurement (SLIGKV-NH2-induced calcium change, Fluo-8, FDSS/μCELL)
Type: cell-based
Conditions: HEK293 cells; SLIGKV-NH2 10 μM-induced intracellular calcium change; read-out: IC50

Compound | IC50
CC1(C)CCCCN1C(=O)c1cc2nc(C34CC5CC(CC(C5)C3)C4)cc(C(F)(F)F)n2n1 [Example 24] | 9 nM
CCc1cc(CC2CCCC2)nc2cc(C(=O)N3CCCCCCC3)nn12 [Example 145] | 252 nM
CCC(CC)c1cc(CC2CCCCCC2)nc2cc(C(=O)N3CCCCC3(C)C)nn12 [Example 130] | 297 nM
CC1CCC(Cc2cc(C(C)C)n3nc(C(=O)N4CCCCC4)cc3n2)CC1 (stereo not shown) [Example 132] | 197 nM
CC(C)c1cc(C23CC4CC(CC(C4)C2)C3)nc2cc(C(=O)N3CCCC(O)C3(C)C)nn12 (stereo not shown) [Example 97] | 20 nM
CC(C)c1cc(CC2CCCC2)nc2cc(C(=O)N3CC=CCCC3)nn12 [Example 123] | 135 nM
CC(C)c1cc(CC2CCCCC2)nc2cc(C(=O)N3CCCCC3)nn12 [Example 140] | 266 nM
CC(C)c1cc(C2CC3CCC2C3)nc2cc(C(=O)N3CCCCCC3)nn12 (stereo not shown) [Example 157] | 319 nM
CC(C)c1cc(CC2CCC(C)(C)CC2)nc2cc(C(=O)N3CCCCCC3)nn12 [Example 152] | 132 nM
CCC(C)c1cc(CC2CCCCC2)nc2cc(C(=O)N3CCCCC3(C)C)nn12 (stereo not shown) [Example 124] | 144 nM
CC(C)c1cc(CC2CCCCC2)nc2cc(C(=O)N3CCC(C)(C)C(=O)C3(C)C)nn12 [Example 119] | 185 nM
CCC(CC)c1cc(CC2CCCC2)nc2cc(C(=O)N3CCCC(O)C3(C)C)nn12 (stereo not shown) [Example 104] | 46 nM
COCCN1CCN(C(=O)c2cc3nc(CC4CCCCC4)cc(C(C)C)n3n2)C(C)(C)C1 [Example 116, [5-(cyclohexylmethyl)-7-propan-2-ylpyrazolo[1,5-a]pyrimidin-2-yl]-[4-(2-methoxyethyl)-2,2-dimethylpiperazin-1-yl]methanone] | 233 nM
CC(C)c1cc(CC2CCCCC2)nc2cc(C(=O)N3CCC(O)CC3(C)C)nn12 (stereo not shown) [Example 118] | 253 nM
CC(C)c1cc(CC2CC3(CCC3)C2)nc2cc(C(=O)N3CCCCCC3)nn12 [Example 160] | 147 nM
CC(C)c1cc(CC2CCCC2)nc2cc(C(=O)N3CCCC(=O)C3(C)C)nn12 [Example 103] | 63 nM
CCC(CC)c1cc(CC2CCCCC2)nc2cc(C(=O)N3CCC(O)CC3(C)C)nn12 (stereo not shown) [Example 73] | 33 nM
CCc1cc(C2CCCCC2)nc2cc(C(=O)N3CCCCC3(C)C)nn12 [Example 121] | 245 nM
CC(C)c1cc(C23CC4CC(CC(C4)C2)C3)nc2cc(C(=O)N3CCC(O)CC3(C)C)nn12 (stereo not shown) [Example 64] | 17 nM
CCCCCc1cc(CC2CCCCC2)nc2cc(C(=O)N3CCCCCC3)nn12 [Example 44] | 208 nM
CC(C)c1cc(COC2CCCC2)nc2cc(C(=O)N3CCCCC3(C)C)nn12 [Example 86] | 338 nM
CC(C)c1cc(CC2CCCCC2)nc2cc(C(=O)N3CCCC(F)(F)CC3)nn12 [Example 142] | 171 nM
CC(C)c1cc(CC2CCCCC2)nc2cc(C(=O)N3CC=CCCC3)nn12 [Example 126] | 207 nM
CC(C)c1cc(CC2CCCC2)nc2cc(C(=O)N3CCCCCCC3)nn12 [Example 51] | 209 nM
CC1(C)COCCN1C(=O)c1cc2nc(CC3CCCCC3)cc(C(F)(F)F)n2n1 [Example 66] | 241 nM

Compound | IC50
CC1CCC(Cc2cc(C(C)C)n3nc(C(=O)N4CCCCC4(C)C)cc3n2)CC1 (stereo not shown) [Example 109] | 85 nM
CCC(C)c1cc(CC2CCCC2)nc2cc(C(=O)N3CCCCC3(C)C)nn12 (stereo not shown) [Example 75] | 89 nM
CCC(C)c1cc(CC2CCCC2)nc2cc(C(=O)N3CCCCCC3)nn12 (stereo not shown) [Example 38] | 102 nM
O=C(c1cc2nc(C34CCC(CC3)CC4)cc(C(F)(F)F)n2n1)N1CCCCCC1 [Example 85] | 310 nM
CCCCCCc1cc(CC2CCCCC2)nc2cc(C(=O)N3CCCCCC3)nn12 [Example 69] | 286 nM
CCc1cc(CC2CCCCCC2)nc2cc(C(=O)N3CCCCCC3)nn12 [Example 148] | 144 nM
CCc1cc(CC2CCCCC2)nc2cc(C(=O)N3CCCCCCC3)nn12 [Example 146] | 136 nM
CC(C)c1cc(CC2CCCCC2)nc2cc(C(=O)N3CCC=CCC3)nn12 [Example 81] | 246 nM
COC1(C)CCCN(C(=O)c2cc3nc(CC4CCCCC4)cc(C(C)C)n3n2)C1(C)C (stereo not shown) [Example 122] | 178 nM
CC(C)(C)c1cc(C23CC4CC(CC(C4)C2)C3)nc2cc(C(=O)N3CCNCC3(C)C)nn12 [Example 101] | 70 nM
O=C(c1cc2nc(N3CCCCC3)cc(C(F)(F)F)n2n1)N1CCCCCC1 [Example 95] | 742 nM
CC1(C)CCCCCN1C(=O)c1cc2nc(C34CC5CC(CC(C5)C3)C4)cc(C(F)(F)F)n2n1 [Example 61] | 96 nM
Cc1cc(CC2CCC(C)CC2)nc2cc(C(=O)N3CCCCCC3)nn12 (stereo not shown) [Example 20] | 24 nM
CC(C)c1cc(CC2CCCCCC2)nc2cc(C(=O)N3CCCCC3(C)C)nn12 [Example 49] | 119 nM
CC1(C)CCCCN1C(=O)c1cc2nc(C3C4CC5CC(C4)CC3C5)cc(C(F)(F)F)n2n1 (stereo not shown) [Example 112] | 113 nM
CCCN(C)c1cc(CC2CCCCC2)nc2cc(C(=O)N3CCCCCC3)nn12 [Example 135] | 386 nM
O=C(c1cc2nc(CC3CCCC3)cc(C3CCCCC3)n2n1)N1CCCCCC1 [Example 134] | 382 nM
CCC(C)c1cc(CC2CCCCCC2)nc2cc(C(=O)N3CCCCCC3)nn12 (stereo not shown) [Example 149] | 208 nM
CC(C)c1cc(C2C3CCCCC32)nc2cc(C(=O)N3CCCCCC3)nn12 (stereo not shown) [Example 159] | 394 nM
O=C(c1cc2nc(CC3CCCCC3)cc(C3CCCCCC3)n2n1)N1CCCCCC1 [Example 115] | 236 nM
CC1(C)CSCCN1C(=O)c1cc2nc(CC3CCCC3)cc(C(F)(F)F)n2n1 [Example 108] | 78 nM
O=C(c1cc2nc(CC3CCCCC3)cc(C(F)(F)F)n2n1)N1CCCCCCCC1 [Example 27] | 138 nM
CCC(C)c1cc(CC2CCCC2)nc2cc(C(=O)N3CCCCCCC3)nn12 (stereo not shown) [Example 78] | 247 nM
CC(C)(C)c1cc(CC2CCCCC2)nc2cc(C(=O)N3CCCCC3(C)C)nn12 [Example 161] | 296 nM
CC(C)(C)c1cc(C23CC4CC(CC(C4)C2)C3)nc2cc(C(=O)N3CCCCCC3)nn12 [Example 23] | 30 nM

Compound | IC50
COC1CCN(C(=O)c2cc3nc(CC4CCCC4)cc(C(C)C)n3n2)C(C)(C)C1 (stereo not shown) [Example 114] | 234 nM
CC(C)c1cc(C(C)C2CCCCC2)nc2cc(C(=O)N3CCCCCC3)nn12 (stereo not shown) [Example 93] | 236 nM
CC(C)c1cc(CC2CCCCC2)nc2cc(C(=O)N3CCSCC3(C)C)nn12 [Example 50] | 43 nM
COC1CCN(C(=O)c2cc3nc(CC4CCCCC4)cc(C(C)C)n3n2)C(C)(C)C1 (stereo not shown) [Example 42] | 40 nM
CCC1CCC(Cc2cc(C(C)C)n3nc(C(=O)N4CCCCCC4)cc3n2)CC1 (stereo not shown) [Example 139] | 95 nM
CCC1CCC(Cc2cc(C(C)C)n3nc(C(=O)N4CCCCC4)cc3n2)CC1 (stereo not shown) [Example 138] | 72 nM
CC(C)c1cc(C2CC23CCCCC3)nc2cc(C(=O)N3CCCCCC3)nn12 (stereo not shown) [Example 151] | 149 nM
CCc1cc(CC2CCCCCC2)nc2cc(C(=O)N3CCCCCCC3)nn12 [Example 147] | 163 nM
CCc1cc(C2CCCCCC2)nc2cc(C(=O)N3CCCCCC3)nn12 [Example 136] | 452 nM
CC1(C)CCCCN1C(=O)c1cc2nc(CC3CCCC3)cc(C(F)(F)F)n2n1 [Example 30] | 102 nM
CCC(CC)c1cc(CC2CCCC2)nc2cc(C(=O)N3CCCCCC3)nn12 [Example 33] | 51 nM
CC(C)c1cc(CC2CCCCC2)nc2cc(C(=O)N3CCCCC3(C)C)nn12 [Example 39] | 64 nM
CC1(c2cc(C(F)(F)F)n3nc(C(=O)N4CCCCCC4)cc3n2)CCCCC1 [Example 57] | 308 nM
CCCCC1CCC(c2cc(C(F)(F)F)n3nc(C(=O)N4CCCCCC4)cc3n2)CC1 (stereo not shown) [Example 58] | 464 nM
CC1CCCN(C(=O)c2cc3nc(CC4CCCC4)cc(C(C)C)n3n2)CC1 (stereo not shown) [Example 127] | 229 nM
O=C(c1cc2nc(CC34CC5CC(CC(C5)C3)C4)cc(C(F)(F)F)n2n1)N1CCCCCC1 [Example 26] | 80 nM
CC(C)c1cc(CC2CCCCC2)nc2cc(C(=O)N3CCSCC3)nn12 [Example 125] | 256 nM
O=C(c1cc2nc(CC3CCCCC3)cc(C3CCCC3)n2n1)N1CCCCCC1 [Example 29] | 467 nM
O=C(c1cc2nc(CC3CCCCC3)cc(C3CCC3)n2n1)N1CCCCCC1 [Example 137] | 482 nM
CC(C)c1cc(CCC2CCCCC2)nc2cc(C(=O)N3CCSCC3(C)C)nn12 [Example 74] | 386 nM
CCC(C)c1cc(CC2CCCCC2)nc2cc(C(=O)N3CCCCCC3)nn12 (stereo not shown) [Example 47] | 146 nM
CC(C)c1cc(CC2CCCCC2)nc2cc(C(=O)N3CCC(C)(C)C(O)C3(C)C)nn12 (stereo not shown) [Example 120] | 298 nM
CC1(C)CC(O)CCN1C(=O)c1cc2nc(C34CC5CC(CC(C5)C3)C4)cc(C(F)(F)F)n2n1 (stereo not shown) [Example 102] | 37 nM
CC(C)c1cc(CC2CCCCC2)nc2cc(C(=O)N3CCCCCO3)nn12 [Example 91] | 522 nM

Same assay, conditions: IC50 (nM)

Compound | IC50
CCCN(CCC)c1cc(CC2CCCCC2)nc2cc(C(=O)N3CCCCCC3)nn12 [Example 89, azepan-1-yl-[5-(cyclohexylmethyl)-7-(dipropylamino)pyrazolo[1,5-a]pyrimidin-2-yl]methanone] | 243 nM
O=C(c1cc2nc(NC34CC5CC(CC(C5)C3)C4)cc(C(F)(F)F)n2n1)N1CCCCCC1 [Example 82] | 76 nM
